System: Methylorubrum extorquens AM1
Test: Tolerance of the strain to the inhibitory effect of itaconic acid
Assay type: cell-based
Settings: itaconic acid 10 mM

C=C(CC(=O)O)C(=O)O [itaconic acid]
Tolerance to inhibitory effect of itaconic acid: highly tolerant

— patent US11208671B2, “Recombinant cell and method of producing itaconic acid” (City University of Hong Kong, priority 2019, dated 2021)
